For the test, the target named is T1, ScISC1 (Saccharomyces cerevisiae, UniProt P40015).
T1 construct: gene ISC1; full-length ORF expressed in L. major iscl- null mutant; whole cell lysate
The test is described as follows: TLC of NBD-ceramide, intact parasites and whole cell lysate. It is filed as cell-based. The note with it: labelled compound; expressed in iscl- null mutant.

T1 sequence (P40015 whole entry): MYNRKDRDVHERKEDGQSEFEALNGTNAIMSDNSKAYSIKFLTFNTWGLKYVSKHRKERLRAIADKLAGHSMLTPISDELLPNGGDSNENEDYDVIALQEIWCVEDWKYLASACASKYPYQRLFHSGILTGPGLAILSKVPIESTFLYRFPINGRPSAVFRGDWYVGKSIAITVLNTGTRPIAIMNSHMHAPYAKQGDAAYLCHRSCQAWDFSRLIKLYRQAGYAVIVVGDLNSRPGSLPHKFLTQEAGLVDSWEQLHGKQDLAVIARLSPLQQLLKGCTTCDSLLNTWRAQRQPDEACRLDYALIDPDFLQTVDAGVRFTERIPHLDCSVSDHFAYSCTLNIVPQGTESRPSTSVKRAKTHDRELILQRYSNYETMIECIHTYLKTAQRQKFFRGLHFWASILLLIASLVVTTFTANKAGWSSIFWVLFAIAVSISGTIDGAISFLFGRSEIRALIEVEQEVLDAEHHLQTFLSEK

Regarding `CCCCCCCCCCCCC/C=C/[C@@H](O)[C@H](COP(=O)([O-])OCC[N+](C)(C)C)NC(=O)CCCCCNc1ccc([N+](=O)[O-])c2nonc12` [NBD C6-sphingomyelin, N-[6-[(7-nitro-2-1,3-benzoxadiazol-4-yl)amino]hexanoyl]-sphingosine-1-phosphocholine], the “TLC of NBD-ceramide, intact parasites and whole cell lysate” value is recorded as “expression of ScISC1 restored the ability to degrade sphingomyelin in iscl^−”.
